Test results reported in patent publication US20070032460A1, “Use of voacamine and related compounds in the treatment of malaria” (priority 2005, published 2007).
Read-outs that look alike come from different tables or passages of the source.

Assays:
[1] = doses of 2000 and 5000 mg/day; cited from earlier work
[2] = tested on: CQ-sensitive (D6) strain of P. falciparum; format: cell-based
Plasmodium falciparum = conditions: verapamil alone, without chloroquine; cited from earlier work
[3] = chloroquine-sensitive strain of P. falciparum, in vitro, Table V, read-out: IC50 (10^−7 M) S
[4] = Plasmodium falciparum, D6, chloroquine-sensitive strain of P. falciparum, in vitro, Table V, read-out: IC50 (10^−7 M) S

For `CC=C1CN(C)C2Cc3c([nH]c4ccccc34)C(c3cc4[nH]c5c(c4cc3OC)CCN3CC4CC(CC)C3C5(C(=O)OC)C4)CC1C2C(=O)OC` (centres unmarked) [VOA, Voacamine], the “toxicity in prior studies” value [1] is given as “minimal toxicity”, the IC50 ([2]; Plasmodium falciparum, D6, read-out: IC50 (10^−7 M) S, chloroquine-sensitive strain of P. falciparum, in vitro, Table V) is given as 240 nM and the IC50 ([2]; Plasmodium falciparum, D6, read-out: IC50, single drug, S strain (D6), drug alone, Table 1, mean ± S.D., three experiments) is given as 238 ± 23.7 nM. For the same molecule, the IC50 ([2]; Plasmodium falciparum, D6, read-out: IC50, single drug, S strain (D6), drug alone, Table II, mean ± S.D., three experiments) was 298 ± 59.8 nM, the IC50 ([2]; Plasmodium falciparum, D6, read-out: IC50 of each drug in combination VOA (1.0 μM) CQ (0.3 μM), S strain (D6), VOA/CQ ratio 10:3) was 56.9 ± 8.2 nM and the IC50 ([2]; Plasmodium falciparum, D6, read-out: IC50 of each drug in combination VOA (1.0 μM) QHS (0.3 μM), S strain (D6), VOA/QHS ratio 10:3) was 87.2 ± 9.5 nM. The IC50 ([2]; Plasmodium falciparum, D6, read-out: IC50 of each drug in combination VOA (2.0 μM) CQ (0.2 μM), S strain (D6), VOA/CQ ratio 10:1) was 114 ± 25.1 nM, the IC50 ([2]; Plasmodium falciparum, D6, read-out: IC50 of each drug in combination VOA (2.0 μM) QHS (0.2 μM), S strain (D6), VOA/QHS ratio 10:1) was 114 ± 5.6 nM and the IC50 ([2]; Plasmodium falciparum, D6, read-out: IC50 of each drug in combination VOA (3.0 μM) CQ (0.1 μM), S strain (D6), VOA/CQ ratio 30:1) was 223 ± 35.8 nM. The IC50 ([2]; Plasmodium falciparum, D6, read-out: IC50 of each drug in combination VOA (3.0 μM) QHS (0.1 μM), S strain (D6), VOA/QHS ratio 30:1) was 240 ± 45.3 nM.
Molecule N6Demethylvoacamine [NDV] has an IC50 [2, 3] of 470 nM.
Work on Voacamidine [VDN] yielded an IC50 [2, 3] of 510 nM.
With `C[C@@H]1CC[C@H]2[C@@H](C)C(=O)O[C@@H]3O[C@@]4(C)CC[C@@H]1[C@]32OO4` [QHS, qinghaosu, reference compound] the IC50 ([2]; S strain (D6), VOA/QHS ratio 10:1, read-out: IC50 of each drug in combination VOA (2.0 μM) QHS (0.2 μM)) was 14.6 ± 0.8 nM, the IC50 ([2]; S strain (D6), VOA/QHS ratio 10:3, read-out: IC50 of each drug in combination VOA (1.0 μM) QHS (0.3 μM)) was 25.9 ± 2.5 nM and the IC50 ([2]; S strain (D6), VOA/QHS ratio 30:1, read-out: IC50 of each drug in combination VOA (3.0 μM) QHS (0.1 μM)) was 9.7 ± 2.3 nM. It also gave an IC50 ([2]; S strain (D6), drug alone, Table II, mean ± S.D., three experiments, read-out: IC50, single drug) of 38.3 ± 4.7 nM.
For `COc1ccc(CCN(C)CCCC(C#N)(c2ccc(OC)c(OC)c2)C(C)C)cc1OC` (centres unmarked) [verapamil], the “effect on malaria, drug alone” value (Plasmodium falciparum) is listed as “no effect”.
With Tabernamine the IC50 [2, 3] was 650 nM.
Work on Decarbomethoxyvoacamine [DCV] yielded an IC50 [2, 3] of 490 nM.
For `CC[C@H]1C[C@@H]2CN3CCc4c([nH]c5ccccc45)[C@](C(=O)OC)(C2)[C@H]13` [COR, Coronaridine], the IC50 [2, 4] was 500 nM.
Molecule Ervahanine has an IC50 [2, 3] of 680 nM.
For `C/C=C1/CN(C)[C@H]2Cc3c([nH]c4ccccc34)C(=O)C[C@H]1[C@@H]2C(=O)OC` [VOB, Vobasine], the IC50 [2, 4] was 470 nM.
Molecule `CCN(CC)CCCC(C)Nc1ccnc2cc(Cl)ccc12` (centres unmarked) [CQ, chloroquine, reference compound] has an IC50 ([2]; Plasmodium falciparum, D6, read-out: IC50, single drug) of 28.5 ± 3.5 nM, an IC50 ([2]; Plasmodium falciparum, D6, read-out: IC50 of each drug in combination VOA (1.0 μM) CQ (0.3 μM)) of 15.9 ± 2.7 nM and an IC50 ([2]; Plasmodium falciparum, D6, read-out: IC50 of each drug in combination VOA (2.0 μM) CQ (0.2 μM)) of 13.5 ± 2.9 nM. The IC50 ([2]; Plasmodium falciparum, D6, read-out: IC50 of each drug in combination VOA (3.0 μM) CQ (0.1 μM)) was 8.2 ± 1.5 nM.
